Assay [1] has as its system cortical neuronal progenitors (E14) plated onto cortical astrocyte monolayers. The experiment in a line: neuron-astrocyte co-culture on astrocytes previously treated with LPA. It counts as cell-based, mouse. The protocol:
All animal protocols were approved by the Animal Research Committee of The Scripps Research Institute, conformed to National Institutes of Health guidelines and public law. Astrocyte primary cultures were prepared from cerebral cortex of newborn mice as previously described (de Sampaio e Spohr et al., Neuron-glia interaction effects on GFAP gene: a novel role for transforming growth factor-31, 2002, Eur J Neurosci, 16:2059-2069, incorporated herein by reference and Sousa et al., Glial fibrillary acidic protein gene promoter is differently modulated by transforming growth factor-beta 1 in astrocytes from distinct brain regions, 2004, Eur Neurosci, 19(7):1721-1730, incorporated by reference in its entirety). Astrocytes cultures were generated from C57B1/6 and Swiss mice. Briefly, after the mice were anesthetized, they were decapitated, brain structures were removed and the meninges were carefully stripped off. Dissociated cells were plated onto glass coverslips in 24 wells-plate (Corning Incorporated, NY), previously coated with polyornithine (1.5 μg/ml, mol. wt. 41,000, Sigma Chemical Co., St. Louis, Mo.), in DMEM/F12 medium supplemented with 10% fetal calf serum (Invitrogen, Carlsbad, Calif.). The cultures were incubated at 37° C. in a humidified 5% CO2, 95% air chamber for 10 days until reaching confluence. For experiments with LPA null mice, embryos from LPA, LPA2 double-heterozygous females (on a mixed background C57B1/6×129SW) were genotyped by PCR using DNA isolated from a small part of the tail (Contos et al., Requirement of the LPA, lysophosphatidic acid receptor gene in normal suckling behavior, 2000, PNAS, 97(24):13384-13389, incorporated herein by reference; Contos et al., Characterization of LPA(2) (Edg4) and LPA(I)/LPA(2) (edg2/Edg4) lysophosphatidic acid receptor knockout mice: signaling deficits without obvious pehotypic abnormality attributable to LPA(2), 2002, Mol Cell Bio, 22(19):6921-6929, incorporated herein by reference).
After reaching confluence, glial mono layers were washed three times with serum-free DMEM/F12 medium and incubated as previously described for an additional day in serum-free medium. Cultures were then treated with 1 μM LPA (Oleoyl-LPA, Avanti Polar Lipids) in DMEM/F12 supplemented with 0.1% fatty-acid free bovine serum albumin (FAFBSA, Sigma) for 4 hours. Control astrocyte carpets were treated with DMEM/F12 supplemented with 0.1% FAFBSA. Medium was then replaced by DMEM/F12 without serum and used as substrate in neuron-astrocyte assays.
For neuronal cultures, timed-pregnant BALB/c females (Simonsen Laboratories), C57B1/6 females or Swiss females were killed by halothane followed by cervical dislocation, and embryos were removed at the day 14 (E14). Cortical progenitors were prepared from cerebral hemispheres from E14 embryos as previously described (Martinez and Gomes, 2002, Neuritogenesis induced by thyroid hormone-treated astrocytes is mediated by epidermal growth factor/mitogen-activated protein kinase-phosphatidylinositol 3-kinase pathways and involves modulation of extracellular matrix proteins, J Biol Chem, 277:49311-49318, incorporated herein by reference; Sousa et al., 2004, Glial fibrillary acidic protein gene promoter is differently modulated by transforming growth factor-beta 1 in astrocytes from distinct brain regions, 2004, Eur J Neurosci 19(7):1721-17302004, incorporated herein by reference). Briefly, cells were freshly dissociated from cerebral hemispheres and 1×10^5 cells plated onto glial monolayer carpets non-treated or previously treated with LPA or LPA-conditioned medium for 4 hours as previously described. In the case of LPA CM assays, the medium was not replaced after 4 hours of treatment; instead it was left until the end of co-culture. Co-cultures were kept for 24 hours at 37° C. in a humidified 5% CO2, 95% air atmosphere. […]

Assay [2] concerns TR mouse cerebral cortical immortalized neuroblast cells. The experiment in a line: LPA-like activity bioassay, cell rounding / neurite retraction. It counts as cell-based. The conditions noted are these: concentrations from 1 to 100 nM of LPA; 15-30 minutes. As for the experimental part:
LPA-like activity was assayed by measuring morphological changes in TR mouse cerebral cortical immortalized neuroblast cells as previously described (Chun and Jaenisch, Clonal cell lines produced by infection of neocortical neuroblast using multiple oncogenes transduced by retroviruses, 1996, Mol Cell Neurosci, 18:379-383; Hecht et al., Ventricular zone gene-1 (vzg-I) encodes a lysophoshpatidic acid receptor expressed in neurogeneic regions of the developing cerebral cortex, 1996, J Cell Bio, 135:1071-1083, incorporated herein by reference; Ishii et al., Functional comparisons of the lysophosphatidic acid receptors, LPA(A1)IVZG-I/EDG-2, LP(A2)/EDG-4, and LP(A3)/EDG-7 in neuronal cell lines using a retrovirus expression system, 2000, Molecular Pharmacology, 58(5):895-902, incorporated herein by references; Fukushima et al., Lysophosphatidic acid influences the morphology and motility of young, postmitotic cortical neurons, 2002, Mol Cell Neurosci, 20(2):271-282, incorporated herein by reference). […] After this period, cells were fixed with 4% PFA and round cells were counted under phase-contrast optics (A-F). […]
After this period, cells were fixed with 4% PFA and round cells were counted under phase-contrast optics (A-F) The cell number was expressed by percentage of protophasmic, non-round population. […]

Assay [3] relates to astrocyte primary cultures from wild type and LPA double-null newborn mice. The experiment in a line: astrocyte morphology and GFAP immunostaining after LPA. It counts as cell-based, mouse. The note with it: 1 μM LPA for 24 hours; wild type and LPA1 LPA2 null astrocytes. From the text: The Generation of Receptor-Null Mice Allows not Only Direct Examination of the systemic roles of LPA receptors in vivo (Contos et al., Requirement of the LPA1 lysophosphatidic acid receptor gene in normal suckling behavior, 2000, PNAS, 97(24):13384-13389, incorporated herein by reference; Contos et al., Characterization of LPA(2) (Edg4) and LPA(I)/LPA(2) (edg2/Edg4) lysophosphatidic acid receptor knockout mice: signaling deficits without obvious pehotypic abnormality attributable to LPA(2), 2002, Mol Cell Bio, 22(19):6921-6929, incorporated herein by reference) but it also contributes for further elucidation of LPA receptor-specific signaling pathways in receptor-null primary cells (Ishii et al., Functional comparisons of the lysophosphatidic acid receptors, LP(A1))/VZG-1/EDG-4, and LP(A3)/EDG-7 in neuronal cell lines using a retrovirus expression system, 2000, Mol. Pharmacology, 58:895-902, incorporated herein by reference). To determine whether LPA effects in the co-culture system are mediated by specific LPA receptors, astrocyte mono layers derived from mice with null mutations in both LPA1 and LPA2 receptors were prepared. Astrocyte primary cultures were prepared from cerebral cortex of wild type and LPA double-null newborn mice. Astrocyte mono layers were kept in DMEM/F12 medium supplemented with 10% fetal calf serum for days until reaching confluence. […]

Assay [4] deals with cortical neuronal progenitors plated onto astrocyte monolayers derived from LPA1 LPA2 null mice. Kind of assay: co-culture on LPA1 LPA2 null astrocytes previously treated with LPA. Format: cell-based, mouse. The note with it: P>0.05. The protocol:
In order to address the involvement of LPA receptor in LPA-astrocyte effects on neuronal morphogenesis, cortical neuronal progenitors derived from E14 wild type mice were plated onto cortical astrocyte mono layers derived from LPA, LPA2 null mice previously treated with LPA. After 24 hours, cells were immunostained for the neuronal marker, β-tubulin III, and the number of neurons and arborization of their neurites were measured. […] The scale bar in FIG. 8 corresponds to 50 μm.

In assay [5] the test system is cortical neuronal progenitors on retroviral infected LPA1/LPA2 double-null astrocytes. The experiment in a line: retroviral rescue of LPA1/LPA2 double-null astrocytes, co-culture. It counts as cell-based, mouse. As for the experimental part:
Retroviral vectors expressing LPA1 or LPA2 were reported previously (Ishii et al., Functional comparisons of the lysophosphatidic acid receptors, LP(A1)/VZG-1/EDG-4, and LP(A3)/EDG-7 in neuronal cell lines using a retrovirus expression system, 2000, Mol. Pharmacology, 58:895-902, incorporated herein by reference) as depicted in FIG. 8A. LPA1/LPA2 double-null astrocytes were infected with the epitope-tagged LPA1, LPA2, or empty-vector control retrovirus in 4 μg/ml of polybrene to the media of subconfluent proliferating astrocytes plated in a monolayer. Plates were centrifuged (700 g) at 28° C. for 2 hours, and the astrocytes cultured for 48 hours in fresh media. Astrocytes were serum starved for another 24 hours and then used in the assays. Receptor expression was confirmed by epitope-tagged immunolabeling of GFP-positive cells.
The retroviral infected LPA1/LPA2 double-null astrocytes were treated with LPA. The astrocytes monolayers were co-cultured with cortical neuronal progenitors derived from E14 wild type mice. After 24 hours, cells were immunostained for the neuronal marker, β-tubulin III, and the number of neurons and arborization of their neurites were measured.

Assay [6] deals with cultured embryonic hippocampal neurons. The conditions noted are these: cited from earlier work.
Setting [7] is: neurons plated onto LPA-treated astrocytes, P<0.05.
Setting [8] is: double-null astrocytes infected with either the LPA1 or LPA2 retrovirus, treated with LPA.

Here are results for 2 substances from patent publication US20080051372A1, “METHODS UTILIZING CELL-SIGNALING LYSOPHOSPHOLIPIDS” (THE SCRIPPS RESEARCH INSTITUTE, priority 2006, published 2008).

As for Oleoyl-LPA, the “number of caspase positive cells (activated caspase-3)” value in assay [1] (after 24 hours of coculture, control vs treated cultures, P>0.05) is “no difference”. The “increase in the number of β-tubulin III positive cells” value in assay [1] (astrocytes treated with 1 μM LPA for 4 hours, 24 hours co-culture, vs control astrocytes, P<0.05) was 41%. Moreover, in assay [1] (setting [7]), the “decrease in the number of aneuritic neurons” value amounted to 64%, the “neurons extending three or more neurites” value is given as “dramatic increase” and the “number of neurons with two neurites” value was “significant increase”. In addition, the “total number of cells” value in assay [1] (progenitor cells plated onto LPA-astrocyte monolayers, P>0.05) is recorded as “not altered”. In addition, the “rounding of TR cells” value in assay [2] is on record as “induced rounding”. The astrocyte morphology result in assay [3] is “did not affect astrocyte morphology”. Also, the neuronal population entry in assay [4] (LPA1 LPA2 null astrocytes treated with LPA, 24 hours) is “did not affect neuronal population”. The neuronal death result in assay [4] (treated vs non-treated LPA1 LPA2 null astrocytes) is given as “did not differ”. In addition, in assay [5] (setting [8]), the “prevalence of greater than two neurites/neurons” value is “increased prevalence” and the “β-tubulin III cells” value is “increased”. Moreover, in assay [5] (double-null astrocytes infected with empty vector control virus (SOO3), primed with LPA), the neuronal differentiation entry was “did not result in an increase”.
Turning to cyclic phosphatidic acid [cPA], the neurite outgrowth result in assay [6] is “promoted neurite outgrowth”.
